# Results: the OligoGym collection
# HELM strings list units from the 5' end as sugar, base in round brackets, then linkage (d deoxyribose, r ribose, m 2'-O-methyl, p phosphodiester). Strings are as the collection lists them; they lack the last nucleoside at the 3' end of the tested compound. [moe] = 2'-O-(2-methoxyethyl) (MOE); [sp] = phosphorothioate linkage; [m5C] = 5-methylcytosine
# Target: SCN2A
# Test: mouse, dose not given
# Settings: ASO
row,Substance,3 h FOB score [score 0-7]
1,RNA1{[moe](G)[sp].[moe](T)p.[moe](A)p.[moe](A)p.[moe]([m5C])p.[moe]([m5C])p.d(T)[sp].d(T)[sp].d(T)[sp].d(A)[sp].d(T)[sp].d(A)[sp].d([m5C])[sp].d(A)[sp].d(T)[sp].d(T)[sp].[moe](T)p.[moe](A)[sp].[moe](A)}$$$$ (last 3' nucleoside missing),0
2,RNA1{[moe](T)[sp].[moe](G)p.[moe](T)p.[moe](A)p.[moe](A)p.d([m5C])[sp].d([m5C])[sp].d(T)[sp].d(T)[sp].d(T)[sp].d(A)[sp].d(T)[sp].d(A)[sp].d([m5C])[sp].d(A)[sp].[moe](T)p.[moe](T)p.[moe](T)[sp].[moe](A)}$$$$ (last 3' nucleoside missing),0
3,RNA1{[moe](G)[sp].[moe](A)p.[moe]([m5C])p.[moe]([m5C])p.[moe](G)p.[moe](A)p.d(A)[sp].d(T)[sp].d(T)[sp].d([m5C])[sp].d(T)[sp].d(A)[sp].d(T)[sp].d(T)[sp].d(T)[sp].d(T)[sp].[moe](A)p.[moe](T)[sp].[moe](A)}$$$$ (last 3' nucleoside missing),0
4,RNA1{[moe](A)[sp].[moe](T)p.[moe](A)p.[moe](T)p.d(T)[sp].d(T)[sp].d(T)[sp].d(T)[sp].d([m5C])[sp].d(T)[sp].d(A)[sp].d([m5C])[sp].d(A)[sp].d([m5C])[sp].[moe](T)p.[moe](G)p.[moe]([m5C])p.[moe](T)[sp].[moe](G)}$$$$ (last 3' nucleoside missing),1
5,RNA1{[moe](G)[sp].[moe]([m5C])p.[moe](A)p.[moe](T)p.[moe](G)p.d(T)[sp].d(T)[sp].d(T)[sp].d(A)[sp].d(T)[sp].d([m5C])[sp].d(T)[sp].d(T)[sp].d(A)[sp].d(G)[sp].[moe](T)p.[moe](T)p.[moe]([m5C])[sp].[moe](T)}$$$$ (last 3' nucleoside missing),1
6,RNA1{[moe](G)[sp].[moe](T)p.[moe](T)p.[moe](T)p.d(T)[sp].d(T)[sp].d(T)[sp].d([m5C])[sp].d(A)[sp].d(T)[sp].d(T)[sp].d(G)[sp].d([m5C])[sp].d(A)[sp].[moe](T)p.[moe]([m5C])p.[moe]([m5C])p.[moe](T)[sp].[moe]([m5C])}$$$$ (last 3' nucleoside missing),1
7,RNA1{[moe](A)[sp].[moe]([m5C])p.[moe](A)p.[moe](T)p.[moe](A)p.[moe](T)p.d(T)[sp].d(T)[sp].d(T)[sp].d(T)[sp].d([m5C])[sp].d(T)[sp].d(A)[sp].d([m5C])[sp].d(A)[sp].d([m5C])[sp].[moe](T)p.[moe](G)[sp].[moe]([m5C])}$$$$ (last 3' nucleoside missing),0
8,RNA1{[moe](T)[sp].[moe](T)p.[moe](T)p.[moe](G)p.[moe]([m5C])p.[moe]([m5C])p.d(A)[sp].d(T)[sp].d(T)[sp].d(T)[sp].d([m5C])[sp].d(T)[sp].d(A)[sp].d(T)[sp].d(A)[sp].d(A)[sp].[moe]([m5C])p.[moe](T)[sp].[moe]([m5C])}$$$$ (last 3' nucleoside missing),0
9,RNA1{[moe](A)[sp].[moe]([m5C])p.[moe](A)p.[moe](T)p.[moe](A)p.d(T)[sp].d(T)[sp].d(T)[sp].d(T)[sp].d(T)[sp].d([m5C])[sp].d(T)[sp].d(A)[sp].d([m5C])[sp].d(A)[sp].[moe]([m5C])p.[moe](T)p.[moe](G)[sp].[moe]([m5C])}$$$$ (last 3' nucleoside missing),0
10,RNA1{[moe](A)[sp].[moe](T)p.[moe](G)p.[moe](T)p.d(A)[sp].d(A)[sp].d([m5C])[sp].d([m5C])[sp].d(T)[sp].d(T)[sp].d(T)[sp].d(A)[sp].d(T)[sp].d(A)[sp].[moe]([m5C])p.[moe](A)p.[moe](T)p.[moe](T)[sp].[moe](T)}$$$$ (last 3' nucleoside missing),0
